Test results: patent US11970474B2, “Substituted benzodiazoles and use thereof in therapy” (THOMAS HELLEDAYS STIFTELSE FÖR MEDICINSK FORSKNING, priority 2018, dated 2024)

Columns and labels:
[1] = target: OGG1 (Homo sapiens (Human), UniProt O15527); assay: In vitro OGG1 activity assay; format: biochemical; conditions: 800 pM OGG1 enzyme, 2 nM human APEX1, 10 nM 8-oxoA:C substrate
Procedure, shortened: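 Fluorescence-release assay on a duplex oligonucleotide carrying an OGG1 substrate base beside a fluorophore, quenched from the complementary strand. Excess APEX1 cleaves the abasic site left by base excision, melting the duplex and unquenching the fluorophore. Compounds in DMSO were dispensed before enzyme and substrate, and fluorescein signal was read.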

[2] = tested on: CCL2; assay: Mouse CCL2 assay in MLE12 cells; format: cell-based; conditions: Mus musculus, MLE12, 30 h, MLE12 cells; TNF-α 20 ng/ml; supernatant after 30 hours; HTRF; read-out: CCL2 (EC50)
Procedure, shortened: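 MLE12 mouse lung epithelial cells (7500/well, DMEM/F12 with 5% FBS) preincubated 1 h with compounds (6-point dose-response, duplicate), then stimulated with TNF-α (final 20 ng/ml) for 30 h at 37 °C. Secreted CCL2 measured by HTRF sandwich immunoassay (Ex330/Em620, 665 nm) against standard curve; IC50 from delta ratios.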

[3] = tested on: MLE12 cells; assay: Cell viability assay in MLE12 cells (resazurin); format: cell-based, mouse; conditions: Mus musculus, MLE12, 24 h, TNF-α 20 ng/ml, resazurin added after 24 hours culture
Procedure, shortened: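 MLE12 cells (7500 cells/well) were seeded onto 11-point duplicate compound dose-responses, with TNF-α (final 20 ng/ml) added after 1 hour at 37° C. After 24 hours, resazurin was added for 6 hours and resorufin fluorescence read (ex544 nm/em595 nm). EC50 values were calculated by curve fitting.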

Sequence of OGG1 (O15527 whole entry): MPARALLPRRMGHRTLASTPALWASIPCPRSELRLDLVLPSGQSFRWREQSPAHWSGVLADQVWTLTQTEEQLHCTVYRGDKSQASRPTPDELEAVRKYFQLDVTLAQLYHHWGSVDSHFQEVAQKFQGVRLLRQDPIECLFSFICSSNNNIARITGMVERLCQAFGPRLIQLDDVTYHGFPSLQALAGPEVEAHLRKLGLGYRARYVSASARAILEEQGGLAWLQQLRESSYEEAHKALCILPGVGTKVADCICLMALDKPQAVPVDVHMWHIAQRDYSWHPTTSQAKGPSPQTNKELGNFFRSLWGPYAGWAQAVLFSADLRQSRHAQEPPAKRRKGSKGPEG

| SMILES | IC50 [1] | EC50 [2] | IC50 [3] |
| --- | --- | --- | --- |
| COc1cc(NC(=O)[C@H]2CC[C@@H](n3c(=O)[nH]c4c(C(=O)N5CCNC(C(F)(F)F)C5)cccc43)CC2)ccc1C (stereo partly drawn) [Example 274, Cis-N-(3-methoxy-4-methylphenyl)-4-{2-oxo-4-[3-(trifluoromethyl)piperazine-1-carbonyl]-2,3-dihydro-1H-1,3-benzodiazol-1-yl}cyclohexane-1-carboxamide] | 0.0921 µM | 39 µM | 18.1 µM |
| COc1cc(NC(=O)[C@H]2CC[C@@H](n3c(=O)[nH]c4c(C(=O)N(C)C5CCN(C)C5)cccc43)CC2)ccc1C (stereo partly drawn) [Example 277, N-Methyl-N-(1-methylpyrrolidin-3-yl)-2-oxo-1-[cis-4-[(3-methoxy-4-methylphenyl)carbamoyl]cyclohexyl]-2,3-dihydro-1H-1,3-benzodiazole-4-carboxamide] | 0.0482 µM | 28.6 µM | 15 µM |
| COc1cc(NC(=O)[C@H]2CC[C@@H](n3c(=O)[nH]c4c(NCCN(C)C)cccc43)CC2)ccc1C [Example 280, Cis-4-(4-{[2-(dimethylamino)ethyl]amino}-2-oxo-2,3-dihydro-1H-1,3-benzodiazol-1-yl)-N-(3-methoxy-4-methylphenyl)cyclohexane-1-carboxamide] | 0.0275 µM | 24.7 µM | 16.6 µM |
| COc1cc(NC(=O)[C@H]2CC[C@@H](n3c(=O)[nH]c4c(N5CCC(NC(=O)OC(C)(C)C)C5)cccc43)CC2)ccc1C (stereo partly drawn) [Example 281, tert-Butyl N-(1-{2-oxo-1-[cis-4-[(3-methoxy-4-methylphenyl)carbamoyl]cyclohexyl]-2,3-dihydro-1H-1,3-benzodiazol-4-yl}pyrrolidin-3-yl)carbamate] | 0.149 µM | 8.83 µM | 1.83 µM |
| COc1cc(NC(=O)[C@H]2CC[C@@H](n3c(=O)[nH]c4c(NC(=O)CN5CCOCC5)cccc43)CC2)ccc1C [Example 285, Cis-N-(3-methoxy-4-methylphenyl)-4-{4-[2-(morpholin-4-yl)acetamido]-2-oxo-2,3-dihydro-1H-1,3-benzodiazol-1-yl}cyclohexane-1-carboxamide] | 0.0451 µM | > 33 µM | 15.9 µM |
| COc1cc(NC(=O)[C@H]2CC[C@@H](n3c(=O)[nH]c4c(NC(=O)C5CNCCO5)cccc43)CC2)ccc1C (stereo partly drawn) [Example 289, N-{2-Oxo-1-[cis-4-[(3-methoxy-4-methylphenyl)carbamoyl]cyclohexyl]-2,3-dihydro-1H-1,3-benzodiazol-4-yl}morpholine-2-carboxamide] | 0.0517 µM | 32.1 µM | 24.5 µM |
| COc1cc(NC(=O)[C@H]2CC[C@@H](n3c(=O)[nH]c4c(N(C)C5CCN(C)C5)cccc43)CC2)ccc1C (stereo partly drawn) [Example 296, Cis-N-(3-Methoxy-4-methylphenyl)-4-{4-[methyl(1-methylpyrrolidin-3-yl)amino]-2-oxo-2,3-dihydro-1H-1,3-benzodiazol-1-yl}cyclohexane-1-carboxamide] | 0.0286 µM | 10.5 µM | 13.5 µM |
| COc1cc(NC(=O)[C@H]2CC[C@@H](n3c(=O)[nH]c4c(NC(=O)c5cc[nH]n5)cccc43)CC2)ccc1C [Example 299, N-{2-Oxo-1-[cis-4-[(3-methoxy-4-methylphenyl)carbamoyl]cyclohexyl]-2,3-dihydro-1H-1,3-benzodiazol-4-yl}-1H-pyrazole-3-carboxamide] | 0.0272 µM | 31.7 µM | 10.2 µM |

Compounds with a lower IC50 [1], results first:

| IC50 [1] | EC50 [2] | SMILES | IC50 [3] |
| --- | --- | --- | --- |
| 0.0181 µM | > 33 µM | COc1cc(NC(=O)[C@H]2CC[C@@H](n3c(=O)[nH]c4c(NC(=O)[C@@H]5C[C@@H](O)CN5)cccc43)CC2)ccc1C [Example 286, (2S,4R)-4-Hydroxy-N-{2-oxo-1-[cis-4-[(3-methoxy-4-methylphenyl)carbamoyl]cyclohexyl]-2,3-dihydro-1H-1,3-benzodiazol-4-yl}pyrrolidine-2-carboxamide] | 20.3 µM |
| 0.0175 µM | 32.6 µM | COc1cc(NC(=O)[C@H]2CC[C@@H](n3c(=O)[nH]c4c(C(=O)NCC5CCCO5)cccc43)CC2)ccc1C (stereo partly drawn) [Example 273, 2-Oxo-N-[(oxolan-2-yl)methyl]-1-[cis-4-[(3-methoxy-4-methylphenyl)carbamoyl]cyclohexyl]-2,3-dihydro-1H-1,3-benzodiazole-4-carboxamide] | 19.2 µM |
| 0.014 µM | 30.8 µM | COc1cc(NC(=O)[C@H]2CC[C@@H](n3c(=O)[nH]c4c(NC(=O)CN(C)C)cccc43)CC2)ccc1C [Example 283, Cis-4-{4-[2-(dimethylamino)acetamido]-2-oxo-2,3-dihydro-1H-1,3-benzodiazol-1-yl}-N-(3-methoxy-4-methylphenyl)cyclohexane-1-carboxamide] | 19.8 µM |
| 0.012 µM | 36.6 µM | COc1cc(NC(=O)[C@H]2CC[C@@H](n3c(=O)[nH]c4c(N(C)CCN)cccc43)CC2)ccc1C [Example 298, Cis-4-{4-[(2-aminoethyl)(methyl)amino]-2-oxo-2,3-dihydro-1H-1,3-benzodiazol-1-yl}-N-(3-methoxy-4-methylphenyl)cyclohexane-1-carboxamide] | 29.2 µM |
| 0.0101 µM | 28.6 µM | COc1cc(NC(=O)[C@H]2CC[C@@H](n3c(=O)[nH]c4c(N5CCC(N)C5)cccc43)CC2)ccc1C (stereo partly drawn) [Example 282, Cis-4-[4-(3-aminopyrrolidin-1-yl)-2-oxo-2,3-dihydro-1H-1,3-benzodiazol-1-yl]-N-(3-methoxy-4-methylphenyl)cyclohexane-1-carboxamide] | 27.5 µM |
| 0.0099 µM | 2.11 µM | COc1cc(NC(=O)[C@H]2CC[C@@H](n3c(=O)[nH]c4c(NC(=O)c5cc(C)on5)cccc43)CC2)ccc1C [Example 300, 5-Methyl-N-{2-oxo-1-[cis-4-[(3-methoxy-4-methylphenyl)carbamoyl]cyclohexyl]-2,3-dihydro-1H-1,3-benzodiazol-4-yl}-1,2-oxazole-3-carboxamide] | 1.58 µM |
| 0.00962 µM | 11.1 µM | COc1cc(NC(=O)[C@H]2CC[C@@H](n3c(=O)[nH]c4c(N5CC[C@H](N(C)C)C5)cccc43)CC2)ccc1C [Example 295, Cis-4-{4-[(3S)-3-(dimethylamino)pyrrolidin-1-yl]-2-oxo-2,3-dihydro-1H-1,3-benzodiazol-1-yl}-N-(3-methoxy-4-methylphenyl)cyclohexane-1-carboxamide] | 10.4 µM |
| 0.00807 µM | 30.8 µM | CNCCN(C)c1cccc2c1[nH]c(=O)n2[C@H]1CC[C@@H](C(=O)Nc2ccc(C)c(OC)c2)CC1 [Example 297, Cis-N-(3-methoxy-4-methylphenyl)-4-(4-{methyl[2-(methylamino)ethyl]amino}-2-oxo-2,3-dihydro-1H-1,3-benzodiazol-1-yl)cyclohexane-1-carboxamide] | 28.9 µM |
| 0.0029 µM | 54 µM | COc1cc(NC(=O)[C@H]2CC[C@@H](n3c(=O)[nH]c4c(C(=O)NCc5ncccn5)cccc43)CC2)ccc1C [Example 276, 2-Oxo-N-[(pyrimidin-2-yl)methyl]-1-[cis-4-[(3-methoxy-4-methylphenyl)carbamoyl]cyclohexyl]-2,3-dihydro-1H-1,3-benzodiazole-4-carboxamide] | 16.9 µM |
